# Patent publication US12497666B2, “Nucleic acid biomarker and use thereof” (Daiichi Sankyo Co., Ltd., priority 2013, dated 2025)
# Assays:
# [1] = test system: Sum225; experiment: Xenograft tumor growth inhibition by U3-1287, Sum225; assay type: in vivo; conditions: Sum225 xenograft in mice, BC FISH + ve; tumor volumes vs control mice
# Procedure: (§1) The HRG biomarker was identified by analysing the anti-tumor activity of the anti-HER3 antibody U3-1287 on various human cancer xenografts in vivo and analysis of the expression of HRG of these cell lines in vitro. Human tumor cell lines of various indications were grown as xenografts in mice and treated with the […] antibody U3-1287 for several weeks. Inhibition of tumor growth was analysed by comparing the tumor volumes of control mice and mice treated with U3-1287. Human tumor cell lines were grown in vitro and analysed for HRG RNA expression by PCR.
# [2] = test system: MDA-MB453; experiment: Xenograft tumor growth inhibition by U3-1287, MDA-MB453; assay type: in vivo; conditions: MDA-MB453 xenograft in mice, BC FISH + ve; tumor volumes vs control mice
# Procedure: as §1
# [3] = test system: BT474; experiment: Xenograft tumor growth inhibition by U3-1287, BT474; assay type: in vivo; conditions: BT474 xenograft in mice, BC FISH + ve; tumor volumes vs control mice
# Procedure: as §1
# [4] = test system: HCC 1569; experiment: Xenograft tumor growth inhibition by U3-1287, HCC 1569; assay type: in vivo; conditions: HCC 1569 xenograft in mice, BC FISH + ve; tumor volumes vs control mice
# Procedure: as §1
# [5] = test system: ZR75-1; experiment: Xenograft tumor growth inhibition by U3-1287, ZR75-1; assay type: in vivo; conditions: ZR75-1 xenograft in mice, BC FISH + ve; tumor volumes vs control mice
# Procedure: as §1
# [6] = test system: MCF-7; experiment: Xenograft tumor growth inhibition by U3-1287, MCF-7; assay type: in vivo; conditions: MCF-7 xenograft in mice, BC FISH + ve; tumor volumes vs control mice
# Procedure: as §1
# [7] = test system: NCI-H441; experiment: Xenograft tumor growth inhibition by U3-1287, NCI-H441; assay type: in vivo; conditions: NCI-H441 xenograft in mice, NSCLC; tumor volumes vs control mice
# Procedure: as §1
# [8] = test system: A549; experiment: Xenograft tumor growth inhibition by U3-1287, A549; assay type: in vivo; conditions: A549 xenograft in mice, NSCLC; tumor volumes vs control mice
# Procedure: as §1
# [9] = test system: Calu-3; experiment: Xenograft tumor growth inhibition by U3-1287, Calu-3; assay type: in vivo; conditions: Calu-3 xenograft in mice, NSCLC; tumor volumes vs control mice
# Procedure: as §1
# [10] = test system: NC-H1975; experiment: Xenograft tumor growth inhibition by U3-1287, NC-H1975; assay type: in vivo; conditions: NC-H1975 xenograft in mice, NSCLC; tumor volumes vs control mice
# Procedure: as §1
# [11] = test system: A375; experiment: Xenograft tumor growth inhibition by U3-1287, A375; assay type: in vivo; conditions: A375 xenograft in mice, Melanoma; tumor volumes vs control mice
# Procedure: as §1
# [12] = test system: HT-144; experiment: Xenograft tumor growth inhibition by U3-1287, HT-144; assay type: in vivo; conditions: HT-144 xenograft in mice, Melanoma; tumor volumes vs control mice
# Procedure: as §1
# [13] = test system: HT-29; experiment: Xenograft tumor growth inhibition by U3-1287, HT-29; assay type: in vivo; conditions: HT-29 xenograft in mice, Colon; tumor volumes vs control mice
# Procedure: as §1
# [14] = test system: MKN-45; experiment: Xenograft tumor growth inhibition by U3-1287, MKN-45; assay type: in vivo; conditions: MKN-45 xenograft in mice, Gastric; tumor volumes vs control mice
# Procedure: as §1
# [15] = test system: BxPC3; experiment: Xenograft tumor growth inhibition by U3-1287, BxPC3; assay type: in vivo; conditions: BxPC3 xenograft in mice, Pancreas; tumor volumes vs control mice
# Procedure: as §1
# [16] = test system: FaDu; experiment: Xenograft tumor growth inhibition by U3-1287, FaDu; assay type: in vivo; conditions: FaDu xenograft in mice, Head&Neck; tumor volumes vs control mice
# Procedure: as §1
# [17] = test system: A549; experiment: Reduction of phospho-HER3 and phospho-AKT levels by Western blotting, A549; assay type: cell-based, human; conditions: A549, endogenously express heregulin
# Procedure: (§2) FIG. 14 depicts efficacy determined in vitro by measuring reduction of phospho-HER3 and phospho-AKT levels by Western blotting.
# (§3) U3-1287 efficacy was determined in vitro by measuring reduction of phospho-HER3 and phospho-AKT levels.
# [18] = test system: CaOV3; experiment: Reduction of phospho-HER3 and phospho-AKT levels by Western blotting, CaOV3; assay type: cell-based, human; conditions: CaOV3, no basal HER3 activation, stimulated with exogenous heregulin
# Procedure: as §2, §3
# [19] = test system: BT474; experiment: HER3 phosphorylation by Western blot, BT474; assay type: cell-based, human
# Excerpt: FIG. 15 depicts Western blots showing that U3-1287 can block […] basal HER3 phosphorylation.
# [20] = Phase 1 monotherapy study of patritumab
# Procedure: A higher maintenance dose level of 18 mg/kg was also included to accommodate the possible effect of reduced tumor tissue penetration in the clinical setting relative to animal models.
substance,measurement,setting,value
patritumab: anti-HER3 antibody; U3-1287 corresponds to patritumab,In vivo efficacy (SA),[1],No
same,In vivo efficacy (SA),[2],No
same,In vivo efficacy (SA),[3],No
same,In vivo efficacy (SA),[4],No
same,In vivo efficacy (SA),[5],No
same,In vivo efficacy (SA),[6],No
same,In vivo efficacy (SA),[7],No
same,In vivo efficacy (SA),[8],Yes
same,In vivo efficacy (SA),[9],Yes
same,In vivo efficacy (SA),[10],Yes
same,In vivo efficacy (SA),[11],No
same,In vivo efficacy (SA),[12],No
same,In vivo efficacy (SA),[13],Yes
same,In vivo efficacy (SA),[14],Yes
same,In vivo efficacy (SA),[15],Yes
same,In vivo efficacy (SA),[16],Yes
same,Basal HER3 phosphorylation (phospho-HER3 and phospho-AKT levels),[17],Basal HER3 phosphorylation could be blocked
same,HER3 phosphorylation (phospho-HER3 and phospho-AKT levels),[18],could be blocked
same,efficacy on HER3 phosphorylation,[19]; BT474 HRG: exogenously added heregulin,this could be overcome by exogenously added heregulin
same,efficacy on HER3 phosphorylation,"[19]; BT474 basal: basal HER3 phosphorylation, no heregulin expression",no efficacy
same,maximum tolerated dose,[20]; Phase 1 study,not reached
same,dose limiting toxicity,[20]; monotherapy Phase 1 study,lack of dose limiting toxicity
